Data taken from patent US9163007B2, “5-substituted indazoles as kinase inhibitors” (AbbVie Inc., priority 2007, dated 2015).
Where “and” joins values, the source holds several entries; their conditions need not be identical. Equal entries are not always repeated.

Legend:
[1] = test system: IL-13; test: Murine asthma model: IL-13 measurement in bronchoalveolar lavage fluid; assay type: in vivo, mouse
Procedure: Animals were sensitized to OVA on day 0 and 7 with an i.p. injection of 8 μg OVA in 2 mg alum. On days 14 and 16, animals received intra-nasal challenge of 0.3 μg OVA in 50 μl sterile PBS. Animals were dosed i.p. with a representative compound of formula (I), Example 179, (dissolved with 0.5% HMPC, 0.02% Tween 80 in water) twice per day at doses of 3, 10, and 30 mg/kg/dose beginning the afternoon of day 13. The final dose of compound was administered 30 minutes prior to measurement of airway hyperresponsiveness (AHR). Dexamethasone was administered orally once a day on days 13-17 at a dose of 3 mg/kg. All endpoints were analyzed on day 17, 24 hours after the second OVA challenge. AHR was assessed using unconscious restrained whole body plethysmography. Briefly, a surgical plane of anesthesia was induced with an i.p. injection of ketamine and xylazine. A tracheal canula was surgically inserted between the third and fourth tracheal rings. Spontaneous breathing was prevented by an intravenous (i.v.) jugular vein injection of pancuronium bromide. Animals were placed in a whole body plethysmograph (Buxco) and mechanically ventilated with 0.2 mL room air at 150 breaths per minute with a volume-controlled ventilator (Harvard Apparatus). Pressure in the lung and flow within the plethysmograph were measured using transducers, and lung resistance was calculated as pressure/flow using Biosystem Xa software. Baseline resistance as well as resistance following challenge with methacholine (3, 10 or 30 mg/mL) that was delivered with an inline ultrasonic-nebulizer were measured. Upon completion of pulmonary function testing, the lungs were lavaged 4 times with 0.5 mL sterile PBS. Lavage fluid was analyzed for IL-13, AMCase, Muc5ac and cellular infiltrates. The efficacy of the test compound was tested at doses of 3, 10 and 30 mg/kg b.i.d. (6, 20, 60 mg/kg/day). […]
IL-13 concentrations in the bronchoalveolar lavage fluid (BAL) were measured by ELISA (R & D Systems) according to manufacturer's instructions.

[2] = test system: MUC5AC; test: Murine asthma model: MUC5AC measurement in BAL; assay type: in vivo, mouse; set-up: dose or concentration left out as unconfirmed
Procedure: Animals were sensitized to OVA on day 0 and 7 with an i.p. injection of 8 μg OVA in 2 mg alum. On days 14 and 16, animals received intra-nasal challenge of 0.3 μg OVA in 50 μl sterile PBS. […] The final dose of compound was administered 30 minutes prior to measurement of airway hyperresponsiveness (AHR). Dexamethasone was administered orally once a day on days 13-17 at a dose of 3 mg/kg. All endpoints were analyzed on day 17, 24 hours after the second OVA challenge. AHR was assessed using unconscious restrained whole body plethysmography. Briefly, a surgical plane of anesthesia was induced with an i.p. injection of ketamine and xylazine. A tracheal canula was surgically inserted between the third and fourth tracheal rings. […] Pressure in the lung and flow within the plethysmograph were measured using transducers, and lung resistance was calculated as pressure/flow using Biosystem Xa software. Baseline resistance as well as resistance following challenge with methacholine (3, 10 or 30 mg/mL) that was delivered with an inline ultrasonic-nebulizer were measured. […] Lavage fluid was analyzed for IL-13, AMCase, Muc5ac and cellular infiltrates. […]
Concentrations of the mucin gene MUC5AC were quantitated by ELISA format. […] The reaction was stopped using 1M H2SO4 and then read in a spectrophotometer at OD 450 nm.

[3] = test system: rats; test: Spinal nerve (L5/L6) ligation model of neuropathic pain (Chung); assay type: in vivo, rat; details: i.p. or p.o., doses ranging from 1-150 mg/kg
Text: Spinal Nerve (L5/L6) Ligation Model of Neuropathic Pain.
As previously described in detail by Kim and Chung (Kim S. H.; Chung J. M. An experimental model for peripheral neuropathy produced by segmental spinal nerve ligation in the rat. Pain 1992, 50, 355-363), a 1.5 cm incision was made dorsal to the lumbosacral plexus. In anesthetized rats, the paraspinal muscles (left side) were separated from the spinous processes, the L5 and L6 spinal nerves isolated, and tightly ligated with 3-0 silk threads. Following hemostasis, the wound was sutured and coated with antibiotic ointment. The rats were allowed to recover and then placed in a cage with soft bedding for 14 days before behavioral testing for mechanical allodynia.

[4] = test system: Balb/c mice; test: Murine model of acute asthma: airway hyperresponsiveness (lung resistance); assay type: in vivo, mouse; details: OVA-challenged mice
Text: Murine Asthma Model of Acute Asthma
Female Balb/c mice were purchased from Taconic and housed at Abbott Bioresearch Center. Animals were utilized at 8-12 weeks of age. All protocols were approved by the Institutional Animal Care and Use Committee (IACUC). Dexamethasone (Dex), and ovalbumin (OVA) were purchased from Sigma. Endotoxin was removed from ovalbumin using DetoxiGel (Pierce) according to manufacturer's protocol and the final material contained less than 0.1 EU/mg protein. Alum Imject was purchased from Pierce.
Animals were sensitized to OVA on day 0 and 7 with an i.p. injection of 8 μg OVA in 2 mg alum. On days 14 and 16, animals received intra-nasal challenge of 0.3 μg OVA in 50 μl sterile PBS. […] All endpoints were analyzed on day 17, 24 hours after the second OVA challenge. AHR was assessed using unconscious restrained whole body plethysmography. […] Pressure in the lung and flow within the plethysmograph were measured using transducers, and lung resistance was calculated as pressure/flow using Biosystem Xa software. Baseline resistance as well as resistance following challenge with methacholine (3, 10 or 30 mg/mL) that was delivered with an inline ultrasonic-nebulizer were measured. […] Lavage fluid was analyzed for IL-13, AMCase, Muc5ac and cellular infiltrates. […]

[5] = test system: rats; test: Sciatic nerve ligation model of neuropathic pain (Bennett); assay type: in vivo, rat; details: i.p. or p.o., doses ranging from 1-150 mg/kg
Text: Sciatic Nerve Ligation Model of Neuropathic Pain.
As previously described in detail by Bennett and Xie (Bennett G. J.; Xie Y-K. A peripheral mononeuropathy in rat that produces disorders of pain sensation like those seen in man. Pain 1988, 33, 87-107), in anesthetized rats, a 1.5 cm incision was made 0.5 cm below the pelvis and the biceps femoris and the gluteous superficialis (right side) were separated. The sciatic nerve was exposed, isolated, and four loose ligatures (5-0 chromic catgut) with 1 mm spacing were placed around it. The rats were allowed to recover and then placed in a cage with soft bedding for 14 days before behavioral testing for mechanical allodynia as described above. In addition, animals were also tested for cold allodynia by dipping their hind paw in a cold-water bath (4.5° C.) and determining the paw withdrawal latency.

[6] = test system: Acidic mammalian chitinase (AMCase); test: Murine asthma model: AMCase measurement in BAL fluid; assay type: in vivo, mouse; details: 30 mg/kg group, p<0.01
Procedure: Animals were sensitized to OVA on day 0 and 7 with an i.p. injection of 8 μg OVA in 2 mg alum. On days 14 and 16, animals received intra-nasal challenge of 0.3 μg OVA in 50 μl sterile PBS. Animals were dosed i.p. with a representative compound of formula (I), Example 179, (dissolved with 0.5% HMPC, 0.02% Tween 80 in water) twice per day at doses of 3, 10, and 30 mg/kg/dose beginning the afternoon of day 13. The final dose of compound was administered 30 minutes prior to measurement of airway hyperresponsiveness (AHR). Dexamethasone was administered orally once a day on days 13-17 at a dose of 3 mg/kg. All endpoints were analyzed on day 17, 24 hours after the second OVA challenge. AHR was assessed using unconscious restrained whole body plethysmography. Briefly, a surgical plane of anesthesia was induced with an i.p. injection of ketamine and xylazine. A tracheal canula was surgically inserted between the third and fourth tracheal rings. […] Pressure in the lung and flow within the plethysmograph were measured using transducers, and lung resistance was calculated as pressure/flow using Biosystem Xa software. Baseline resistance as well as resistance following challenge with methacholine (3, 10 or 30 mg/mL) that was delivered with an inline ultrasonic-nebulizer were measured. […] Lavage fluid was analyzed for IL-13, AMCase, Muc5ac and cellular infiltrates. […]

| SMILES | inhibition of IL-13 induction in BAL fluid ([1]; 3 mg/kg dose group) | inhibition of IL-13 induction in BAL fluid ([1]; 10 mg/kg dose group) | inhibition of IL-13 induction in BAL fluid ([1]; 30 mg/kg dose, p<0.05) | reduction of MUC5AC levels [2] | inhibition of tactile allodynia [3] | methacholine-induced airways resistance ([4]; i.p. twice per day, tested 3, 10, 30 mg/kg, printed 'doses ranging between 1 and 100 mg/kg', OVA 6.90, PBS 4.65) | inhibition of tactile allodynia [5] | inhibition of AMCase activity induction in BAL fluid [6] | methacholine-induced airways resistance ([4]; 3 mg/kg orally once a day) |
| --- | --- | --- | --- | --- | --- | --- | --- | --- | --- |
| O=C(N[C@H](CCO)c1ccccc1)c1cc(-c2ccc3[nH]ncc3c2)on1 [Example 179, N-[(1R)-3-hydroxy-1-phenylpropyl]-5-(1H-indazol-5-yl)isoxazole-3-carboxamide] | no significant inhibition | no significant inhibition | 60% | 35% | greater than 30% | 4.55 cm H2O/mL/sec and 4.77 cm H2O/mL/sec | greater than 30% | 45% | – |
| O=C(N[C@H](CO)c1ccccc1)c1cc(-c2ccc3[nH]ncc3c2)on1 [Example 160, N-[(1S)-2-hydroxy-1-phenylethyl]-5-(1H-indazol-5-yl)isoxazole-3-carboxamide] | – | – | – | – | greater than 30% | – | greater than 30% | – | – |
| C[C@@H]1C[C@H]2[C@@H]3CCC4=CC(=O)C=C[C@]4(C)[C@@]3(F)[C@@H](O)C[C@]2(C)[C@@]1(O)C(=O)CO [dexamethasone, Dexamethasone, reference compound] | – | – | – | – | – | – | – | – | 4.76 cm H2O/mL/sec |
